Data on eight molecules can be found in patent publication US12435061B2 (priority 2020, dated 2025).

Each structure is given as a SMILES string. pIC50: −log10 of the molar value. In brackets after ≈: the same amount, converted by molar mass. Several values for one entry are separate records, joined by “and”; a condition that tells them apart may be missing. Equal entries are not always repeated. A value given as a limit tells only on which side of the number the result lay.

Data set [1] concerns the target T1, hTRPV3 (Homo sapiens (Human), UniProt Q8NET8). The data set can be described thus: Whole-cell patch clamp, hTRPV3 Phase 1 / Phase 2 currents. It counts as cell-based. The settings on record: for pIC50: inward, whole-cell patch clamp. The procedure, abridged:
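Currents are activated by 20 μM 2-APB or by perfusate at 28 °C or warmer, in Ringer's solution, and quantified at ±80 mV.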
(In general: The patch-clamp technique gives a direct electrical read-out from membranes.)

A short description of data set [2]: Aqueous solubility assay in Normal Ringer Solution. The settings on record: Normal Ringer Solution; for solubility at 40 min: saline or isotonic, kinetic from dmso stock. On the procedure: Following vortex and incubation for a sufficient time (e.g. 40 minutes at room temperature), solutions were filtered, quenched with acetonitrile, and analyzed by Liquid Chromotography. Solubility Limits were determined by comparison to a standard curve.

The target in data set [3] is T1, hTRPV3. Put plainly: hTRPV3 HAMA IC50 assay (Hamamatsu FDSS6000 calcium flux, TRex-293 cells). A general note: Calcium assays in cells follow changes in intracellular calcium, usually with a dye or a luminescent sensor.
Experimental: IC50s were calculated using CBIS from ChemInnovation (San Diego).
The nature of data set [4]: Metabolic Stability assay, rat liver microsomes. It counts as in vitro ADME. The conditions noted are these: for half-life at 1 μM: read-out: LM T1/2 (min) (rat). The procedure, abridged: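 Reactions in human or rat liver microsomes at 37 °C were started with an NADPH-regenerating system, using 1 μM compound initially. Samples were taken at 0, 7, 15, 30 and 60 min, quenched in ice-cold acetonitrile/MeOH/H2O, and quantified by HPLC/MS/MS.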

Setting [5] is: Phase 1 current, read-out: hTRPV3 Patch P1 Inwd.
[6] abbreviates: Phase 1 current, read-out: hTRPV3 (nM) (Phase 1).
[7] abbreviates: read-out: hTRPV3 (nM) (Phase 1).
Where [8] appears, read: hTRPV3 HAMA IC50 (nM) (5 min), 5 min.
Where [9] appears, read: Phase 2 current, read-out: hTRPV3 Patch P2 Inwd.
The mark [10] stands for this setting: Phase 2 current, read-out: hTRPV3 (nM) (Phase 2).
Setting [11] is: hTRPV3 HAMA IC50 (nM) (30 min), 30 min.

T1 sequence (Q8NET8 whole entry): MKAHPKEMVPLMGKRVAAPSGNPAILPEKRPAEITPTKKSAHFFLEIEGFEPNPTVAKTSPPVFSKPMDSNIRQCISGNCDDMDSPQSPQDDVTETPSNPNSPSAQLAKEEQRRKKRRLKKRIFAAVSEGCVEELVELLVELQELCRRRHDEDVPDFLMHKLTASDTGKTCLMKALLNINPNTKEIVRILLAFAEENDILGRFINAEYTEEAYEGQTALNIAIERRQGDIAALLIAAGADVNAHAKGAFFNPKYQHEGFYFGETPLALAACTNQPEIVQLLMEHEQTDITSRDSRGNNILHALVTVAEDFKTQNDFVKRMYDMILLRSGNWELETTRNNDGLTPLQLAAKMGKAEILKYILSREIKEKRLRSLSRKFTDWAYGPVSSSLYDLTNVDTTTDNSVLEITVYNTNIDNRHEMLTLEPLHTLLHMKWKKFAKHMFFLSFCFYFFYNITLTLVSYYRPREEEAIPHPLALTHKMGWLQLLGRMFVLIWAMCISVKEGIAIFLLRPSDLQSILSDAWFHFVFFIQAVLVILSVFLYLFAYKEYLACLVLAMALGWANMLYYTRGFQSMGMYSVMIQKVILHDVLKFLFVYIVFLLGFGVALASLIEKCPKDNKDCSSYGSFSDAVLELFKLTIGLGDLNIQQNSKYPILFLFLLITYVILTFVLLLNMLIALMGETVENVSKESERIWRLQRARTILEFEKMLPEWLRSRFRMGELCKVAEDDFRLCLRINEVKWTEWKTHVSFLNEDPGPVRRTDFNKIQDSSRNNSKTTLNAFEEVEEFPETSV

As to `NC(=O)c1cc(C(O)c2ccccc2)ccc1N1CC[C@H](Oc2ncccc2Cl)C1` (stereo partly drawn) [Compound 1-137, 2-((S)-3-(3-chloropyridin-2-yloxy)pyrrolidin-1-yl)-5-(hydroxy(phenyl)methyl)benzamide], the pIC50 on hTRPV3 [1] (setting [5]) is below 6.00. Besides, on hTRPV3 [1] (setting [6]), the IC50 was determined as 2980 nM. Also, the solubility at 40 min in data set [2] was above 17.7 µM. For the same molecule, the “hTRPV3 HAMA IC50 (nM) (5 min)” value on hTRPV3 [3] (5 min) is on record as “no fit (5 min)”. In addition, the half-life at 1 μM in data set [4] came to 8.72 min.

As for `OCCCc1cc(-c2ccccc2)ccc1N1CC[C@H](Oc2ccc(C(F)(F)F)cn2)C1` [Compound 1-138, (S)-3-(4-(3-(5-(trifluoromethyl)pyridin-2-yloxy)pyrrolidin-1-yl)biphenyl-3-yl)propan-1-ol], the pIC50 on hTRPV3 [1] (setting [5]) is 6.00 to 7.00. Moreover, the IC50 at hTRPV3 [1] (setting [6]) was found to be 275 nM. Also, the “Solubility Ringer (nM)” value in data set [2] (room temperature) is “BLQ”. Moreover, the “hTRPV3 HAMA IC50 (nM) (5 min)” value at hTRPV3 [3] (5 min) is “no fit (5 min)”. Besides, in data set [4], the half-life at 1 μM came to 62.4 min.

As to `OCc1nc(Oc2ccccc2)ccc1N1CC[C@H](Oc2ccc(C(F)(F)F)cn2)C1` [Compound 1-139, (S)-(6-phenoxy-3-(3-(5-(trifluoromethyl)pyridin-2-yloxy)pyrrolidin-1-yl)pyridin-2-yl)methanol], at hTRPV3 [1] (setting [5]), the pIC50 is 7.00 to 8.00. Further, the IC50 was found to be 23.6 nM on hTRPV3 [1] (setting [6]) and 5750 nM at hTRPV3 [3] (read-out: hTRPV3 HAMA IC50 (nM) (5 min), 5 min). Moreover, the “Solubility Ringer” value in data set [2] (room temperature) was around 300 nM (≈ 0.129 µg/mL). Also, the “LM T1/2 (min) (rat)” value in data set [4] (1 μM) was 30.7 (rat) min.

Regarding `NC(=O)c1cc(Cc2ccccc2)ccc1N1CC[C@H](Oc2ccc(C(F)(F)F)cn2)C1` [Compound 1-140, (S)-5-benzyl-2-(3-(5-(trifluoromethyl)pyridin-2-yloxy)pyrrolidin-1-yl)benzamide], the values for the IC50 at hTRPV3 [1] (hTRPV3 Patch P1 Inwd (nM)) and on hTRPV3 [1] (setting [7]) were 100 to 1000 nM and 710 nM, respectively. Also, the “Solubility Ringer (nM)” value in data set [2] (room temperature) is “BLQ”. For the same molecule, the “hTRPV3 HAMA IC50 (nM) (5 min)” value on hTRPV3 [3] (5 min) is “no fit (5 min)”. The half-life at 1 μM in data set [4] was 27.7 min.

As to `NC(=O)c1cc(C(O)c2ccccc2)ccc1N1CC[C@H](Oc2ccc(C(F)(F)F)cn2)C1` (stereo partly drawn) [Compound 1-146, 5-(hydroxy(phenyl)methyl)-2-((S)-3-(5-(trifluoromethyl)pyridin-2-yloxy)pyrrolidin-1-yl)benzamide], the pIC50 on hTRPV3 [1] (setting [5]) was 6.00 to 7.00. The IC50 on hTRPV3 [1] (setting [6]) is 686 nM; at hTRPV3 [3] (setting [8]), 11800 nM. The same molecule had a solubility at 40 min in data set [2] above 13.3 µM. Besides, the half-life at 1 μM in data set [4] stood at 45.8 min.

With `OCc1cc(Oc2ccccc2)ccc1N1CC[C@H](Oc2ncccc2Cl)C1` [Compound 1-168, (S)-(2-(3-(3-chloropyridin-2-yloxy)pyrrolidin-1-yl)-5-phenoxyphenyl)methanol], the pIC50 at hTRPV3 [1] (setting [5]) and on hTRPV3 [1] (setting [9]) was 7.00 to 8.00 in each case. The IC50 was 61.2 nM on hTRPV3 [1] (setting [6]), 90.5 nM at hTRPV3 [1] (setting [10]) and above 20000 nM on hTRPV3 [3] (setting [8]). In addition, in data set [2], the solubility at 40 min was around 0.5 µM (≈ 0.198 µg/mL). In addition, in data set [4], the half-life at 1 μM came out at 26.7 min.

With `Cc1ccccc1Oc1ccc(N2CC[C@H](Oc3ncccc3Cl)C2)c(CO)c1` [Compound 1-173, (S)-(2-(3-(3-chloropyridin-2-yloxy)pyrrolidin-1-yl)-5-(o-tolyloxy)phenyl)methanol], the pIC50 at hTRPV3 [1] (setting [5]) and on hTRPV3 [1] (setting [9]) was 7.00 to 8.00 throughout. In addition, the IC50 was around 29 nM at hTRPV3 [1] (setting [6]); 34.7 nM at hTRPV3 [1] (setting [10]); > 20000 nM and 12000 nM on hTRPV3 [3] (setting [8]); 1900 nM at hTRPV3 [3] (setting [11]). Also, the “Solubility Ringer (nM)” value in data set [2] (room temperature) was “BLQ”. Also, the half-life at 1 μM in data set [4] was determined as 27.9 min.

Consider `COc1ccccc1Oc1ccc(N2CC[C@H](Oc3ncccc3Cl)C2)c(CO)c1` [Compound 1-221, (S)-(2-(3-(3-chloropyridin-2-yloxy)pyrrolidin-1-yl)-5-(2-methoxyphenoxy)phenyl)methanol], for which the results for the IC50 against hTRPV3 [1] (hTRPV3 Patch P1 Inwd (nM)), at hTRPV3 [1] (setting [7]) and at hTRPV3 [3] (setting [11]) were 100 to 1000 nM, 159 nM and 19400 nM, respectively. In data set [2], this molecule came in with a solubility at 40 min of around 2.9 µM (≈ 1.24 µg/mL). Besides, at hTRPV3 [3] (5 min), the “hTRPV3 HAMA IC50 (nM) (5 min)” value is on record as “no fit”. Further, the half-life at 1 μM in data set [4] was 12.9 min.

As usually defined, the solubility is the dissolved amount per volume that the medium holds. Read a high solubility as a readily soluble substance.
